These results are taken from patent publication US11154593B2, “CNP prodrugs with large carrier moieties” (ASCENDIS PHARMA GROWTH DISORDERS A/S, priority 2016, dated 2021).

Data set [1] can be described thus: Evaluation of cardiovascular effects in the conscious telemetered mouse (subcutaneous administration). Conditions: for MAP during the remaining ten time points versus vehicle / change in MAP at the 5, 15 and 30 min post dose time points compared to predose / MAP (mean ± SD): 800 μg CNP-38 (eq)/kg sc; for MAP during the remaining ten time points versus vehicle: 1 to 48 hours postdose; for change in MAP at the 5, 15 and 30 min post dose time points compared to predose: CNP-38: 3 of 4 animals. In kind it is in vivo. The protocol: Male Crl:CDl(ICR) mice (age range 8-13 weeks and body weight range 27.3-35.6 g at start of dosing) were surgically implanted with a TA11PA-C10 telemetry transmitter (Data Sciences International (DSI)) in the carotid artery. The body of the transmitter was placed subcutaneously in the lateral flank of the mouse. The mice were dosed subcutaneously in a latin square crossover design with at least 72 hours between dosing occasions. […] At least four mice were included at each dose level. Blood pressure (systolic (SAP), diastolic (DAP) and mean (MAP) and heart rate (HR, derived from blood pressure), were recorded using a digital data capture system linked with a DSI™ Ponemah data acquisition and analysis system. The capture system allowed recording of the cardiovascular parameters whilst the mice were in individual cages. On the day of each test session the animals were weighed and a predose recording was performed for at least 60 min prior to dosing. Each mouse was returned to the home cage and the cardiovascular parameters were recorded for approximately 48 hours postdose. Blood pressure and HR were reported at the following time points: -30, -20, -10, 5, 15 and 30 min postdose and 1, 2, 6, 12, 18, 24, 30, 36, 42 and 48 hours postdose. Each time point was presented as the average value of five minute's recording prior to the time point. The monitoring period was selected to cover exposure to the test items both prior to and after Tmax.

Data set [2] in a line: Pharmacokinetic profile of CNP-38 after subcutaneous single-dose administration to cynomolgus monkeys. It is filed as in vivo.
Procedure: Blood samples were collected at 5, 10, 15, 30, 45 min and 1, 2, 4, 8 hours upon dose.
Method: Plasma levels of CNP were analysed using a commercially available competitive radioimmuno-assay (RK-012-03, Phoenix Pharmaceuticals, CA). The assay was applied essentially as described by the manufacturer. The assay is based on competitive binding between 1251-labelled CNP (supplied in the kit) and unlabeled CNP (from study sample or calibrants) to an anti-CNP antibody. […] By measuring the amount of 1251-labelled CNP bound as a function of the concentration of peptide, it is possible to construct a calibration curve from which the concentration of peptide in the sample can be determined.
A few changes to the supplied assay protocol were made. These changes included using in-house CNP calibrant and QC samples to secure consistency between assay runs. […] Due to matrix effects in monkey plasma, the minimal required dilution was set at 1:10, yielding an assay range of 150-1080 μg/mL CNP.
The target in data set [3] is Neutral Endopeptidase (NEP) (Homo sapiens, UniProt P08473). Put plainly: in vitro. The conditions noted are these: pH 7.4.
Procedure: (§1) In order to determine the in vitro stability of various CNP variants including different peptide chain lengths and PEGylations using different PEGylation sites and PEG molecules in the presence of Neutral Endopeptidase (NEP), a NEP digest assay was established. This assay monitored the decrease of the non-digested CNP variant (normalized with the internal standard PFP) over time in reference to the t0-time point.
(§2) In detail, recombinant human NEP (2.5 μg/mL final concentration) and the standard pentafluorophenol (PFP; 40 μg/mL final concentration) were added to the CNP variant (100 μg CNP equivalents/mL) in digest buffer (50 mM Tris-HCl, pH 7.4, 10 mM NaCl). The solution was incubated at 37° C. and 500 rpm for up to 4 days. Samples were taken at different time intervals. The reaction was stopped by a combined reduction and heat denaturation adding TCEP (tris(2-carboxyethyl)phosphine; 25 mM final concentration) and incubating the mixture at 95° C., 500 rpm for 5 minutes. The resulting reaction products were assigned using HPLC-MS. The half life of each CNP variant was calculated via the ratio change in the HPLC-UV peak areas of CNP and PFP over time.
For data set [4] the following is noted: doses up to 15 μg/kg, healthy volunteers; cited from earlier work.
The conditions of data set [5]: in vivo; cited from earlier work.
Data set [6] addresses recombinant human NEP (Homo sapiens, UniProt P08473). Put plainly: Digest of CNP variants by Neutral Endopeptidase in vitro (NEP digest assay). Conditions: pH 7.4.
Procedure: as §1, §2
In data set [7] the target is T1, NPR-B (Mus musculus, UniProt Q6VVW5).
T1 construct: These cells express endogenously NPR-B on the cell surface; endogenous in cells; host or cells: NIH-3T3 (murine embryo fibroblasts)
T1 sequence (Q6VVW5 17-1047): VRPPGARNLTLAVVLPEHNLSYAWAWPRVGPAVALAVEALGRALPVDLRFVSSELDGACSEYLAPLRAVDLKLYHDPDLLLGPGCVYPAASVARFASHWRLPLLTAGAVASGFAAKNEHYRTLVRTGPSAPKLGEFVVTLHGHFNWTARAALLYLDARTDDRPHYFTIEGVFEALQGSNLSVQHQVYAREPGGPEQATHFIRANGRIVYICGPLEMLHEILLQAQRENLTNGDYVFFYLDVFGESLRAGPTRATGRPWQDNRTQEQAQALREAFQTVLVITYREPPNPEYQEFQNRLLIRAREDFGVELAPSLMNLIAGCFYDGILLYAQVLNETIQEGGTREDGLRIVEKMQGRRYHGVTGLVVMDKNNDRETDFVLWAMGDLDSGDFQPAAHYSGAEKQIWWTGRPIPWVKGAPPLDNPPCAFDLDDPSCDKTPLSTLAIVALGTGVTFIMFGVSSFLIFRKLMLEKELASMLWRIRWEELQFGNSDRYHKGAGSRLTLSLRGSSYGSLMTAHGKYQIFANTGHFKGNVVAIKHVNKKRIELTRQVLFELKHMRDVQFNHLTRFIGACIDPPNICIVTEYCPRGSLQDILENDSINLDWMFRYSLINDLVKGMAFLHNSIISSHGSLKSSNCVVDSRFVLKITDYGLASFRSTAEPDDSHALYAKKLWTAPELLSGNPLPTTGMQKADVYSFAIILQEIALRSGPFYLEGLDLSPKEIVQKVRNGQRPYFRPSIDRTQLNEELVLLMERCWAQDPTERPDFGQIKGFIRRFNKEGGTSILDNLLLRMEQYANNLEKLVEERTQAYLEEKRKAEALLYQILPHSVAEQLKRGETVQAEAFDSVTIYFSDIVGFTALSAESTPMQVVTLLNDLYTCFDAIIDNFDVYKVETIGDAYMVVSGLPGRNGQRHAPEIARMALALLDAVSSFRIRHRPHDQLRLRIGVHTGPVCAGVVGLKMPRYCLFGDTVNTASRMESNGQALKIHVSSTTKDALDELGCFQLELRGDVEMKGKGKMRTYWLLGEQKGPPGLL
Put plainly: Functional cGMP stimulation in NIH-3T3 cells with CNP variants. Conditions: cGMP TR-FRET, 30 min, 37° C. It is filed as cell-based, Murine. The protocol:
Functional activity of CNP variants were determined in a cell-based assay with NIH-3T3 cells (Murine Embryo Fibroblast cell line). These cells express endogenously NPR-B on the cell surface. Stimulation of NPR-B with CNP leads to intracellular production of the second messenger cGMP which is detected with a commercially available cGMP assay. NIH-3T3 cells were routinely cultured in DMEM F-12 medium with 5% FBS and 5 mM glutamine at 37° C. and 5% CO2. For each assay, 50,000 cells were resuspended in stimulation buffer (Dulbecco's PBS with IBMX) and incubated with the CNP variants in different concentrations. CNP (dilutions were made in PBS with 0.2% BSA). After incubation of 30 min at 37° C. and 5% CO2, the cells were lyzed and cGMP levels were determined with a commercially available cGMP TR-FRET assay (Cisbio, cGMP kit, Cat. No. 62GM2PEB). PEGylated CNP variants were always characterized in comparison with the non-PEGylated version in the same experiment batch. If possible, evaluation of the residual activity was done via the EC50- parameter of the resulting dose-response curve (restricted model with common slope).
After 7 d, released CNP-38 was isolated by RP-HPLC and analyzed for bioactivity as described in Example 22.

In data set [8] the target is T2, NPR-C (Homo sapiens, UniProt P17342).
T2 sequence (P17342 27-541): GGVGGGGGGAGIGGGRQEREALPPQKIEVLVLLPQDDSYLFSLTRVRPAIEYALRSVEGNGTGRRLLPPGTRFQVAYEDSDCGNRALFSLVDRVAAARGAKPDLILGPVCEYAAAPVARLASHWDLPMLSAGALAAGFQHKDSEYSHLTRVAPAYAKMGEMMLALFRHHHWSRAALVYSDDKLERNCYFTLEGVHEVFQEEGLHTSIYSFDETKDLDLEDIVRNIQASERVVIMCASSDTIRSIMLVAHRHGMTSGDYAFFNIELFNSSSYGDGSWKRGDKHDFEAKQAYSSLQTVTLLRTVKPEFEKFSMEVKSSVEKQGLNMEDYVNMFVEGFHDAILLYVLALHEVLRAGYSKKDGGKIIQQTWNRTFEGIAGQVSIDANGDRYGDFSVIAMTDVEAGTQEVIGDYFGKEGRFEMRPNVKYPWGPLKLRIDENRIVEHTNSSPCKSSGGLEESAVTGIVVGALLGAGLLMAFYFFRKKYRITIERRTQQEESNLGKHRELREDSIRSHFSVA
Briefly: NPR-C affinity assay (competition with fluorescein-labelled CNP 27d, flow cytometry). The conditions noted are these: NPR-C expressing Hek293 cell line. (In flow cytometry, cells or beads pass a laser one at a time.)

The mark [9] stands for this setting: male, cynomolgus monkey, in vivo, sc, 40 ug/kg.

Read-outs that look alike come from different tables or passages of the source.

Chain of recombinant human NEP (P08473 whole entry): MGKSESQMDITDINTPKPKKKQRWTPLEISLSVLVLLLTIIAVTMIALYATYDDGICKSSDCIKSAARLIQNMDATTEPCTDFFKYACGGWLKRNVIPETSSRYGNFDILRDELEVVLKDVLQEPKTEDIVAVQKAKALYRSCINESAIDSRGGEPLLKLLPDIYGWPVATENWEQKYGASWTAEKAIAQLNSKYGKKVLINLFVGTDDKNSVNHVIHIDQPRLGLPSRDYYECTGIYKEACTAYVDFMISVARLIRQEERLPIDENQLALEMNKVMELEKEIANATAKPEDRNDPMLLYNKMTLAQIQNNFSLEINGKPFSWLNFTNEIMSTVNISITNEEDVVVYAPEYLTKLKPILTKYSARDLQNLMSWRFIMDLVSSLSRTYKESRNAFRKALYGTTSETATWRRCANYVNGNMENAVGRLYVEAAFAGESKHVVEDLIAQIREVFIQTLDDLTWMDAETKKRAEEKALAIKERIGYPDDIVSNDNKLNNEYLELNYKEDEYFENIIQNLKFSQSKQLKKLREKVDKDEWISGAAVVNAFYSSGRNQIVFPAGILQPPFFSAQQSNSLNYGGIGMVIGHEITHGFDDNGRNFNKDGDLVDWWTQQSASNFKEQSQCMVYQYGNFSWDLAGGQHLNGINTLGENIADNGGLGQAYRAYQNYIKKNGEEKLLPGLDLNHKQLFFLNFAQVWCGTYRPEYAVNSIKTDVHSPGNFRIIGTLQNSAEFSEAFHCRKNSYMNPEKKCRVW
Chain of Neutral Endopeptidase (NEP) (P08473 whole entry): as above

For the compound `CC[C@H](C)[C@@H]1NC(=O)[C@H](CCCNC(=N)N)NC(=O)[C@H](CC(=O)O)NC(=O)[C@H](CC(C)C)NC(=O)[C@H](CCCCN)NC(=O)[C@H](CC(C)C)NC(=O)CNC(=O)[C@H](Cc2ccccc2)NC(=O)[C@@H](NC(=O)CNC(=O)[C@H](CCCCN)NC(=O)[C@H](CO)NC(=O)[C@H](CC(C)C)NC(=O)CNC(=O)[C@H](CCCCN)NC(=O)[C@H](CCCCN)NC(=O)[C@H](CC(N)=O)NC(=O)[C@H](C)NC(=O)CNC(=O)[C@H](CCCCN)NC(=O)[C@H](Cc2ccc(O)cc2)NC(=O)[C@H](CCCCN)NC(=O)[C@H](CCCNC(=N)N)NC(=O)[C@H](C)NC(=O)[C@H](CC(N)=O)NC(=O)[C@@H]2CCCN2C(=O)[C@H](Cc2c[nH]cn2)NC(=O)[C@H](CCC(=O)O)NC(=O)[C@H](CCC(N)=O)NC(=O)[C@@H](N)CC(C)C)CSSC[C@@H](C(=O)O)NC(=O)CNC(=O)[C@H](CC(C)C)NC(=O)CNC(=O)[C@H](CO)NC(=O)[C@H](CCSC)NC(=O)[C@H](CO)NC(=O)CNC1=O` [CNP-38, reference compound], in data set [1], the “MAP during the remaining ten time points versus vehicle” value was “no difference in MAP”; the “change in MAP at the 5, 15 and 30 min post dose time points compared to predose” value is reported as “significant decrease in MAP”. In data set [1] (5 min post dose), the “MAP (mean ± SD)” value was found to be 102.0 ± 7.5 mmHg. Moreover, the “MAP (mean ± SD)” value in data set [1] (15 min post dose) turned out to be 89.5 ± 29.4 mmHg. Besides, the “MAP (mean ± SD)” value in data set [1] (30 min post dose) is given as 99.5 ± 25.2 mmHg. Also, the “MAP (mean ± SD)” value in data set [1] (predose) was determined as 106.8 ± 13.4 mmHg. For the same compound, in data set [2] (setting [9]), the AUC(0-t) (usually exposure summed from dosing to a finite time, without extrapolation to infinity) is 2.5 ng·h/mL; the peak level (Cmax) was 7.9 ng/mL; the Tmax (usually the time from dosing to the highest level) was 0.167 h. The half-life – broadly, the time in which the quantity being followed falls by half – in data set [2] (male, cynomolgus monkey, in vivo, sc, 40 ug/kg, Half-life (mean)) was roughly 7 min. For the same compound, in data set [2] (single s.c. 40 μg/kg), the tolerability result was “well tolerated”. Besides, in data set [3], the half-life at 100 μg CNP equivalents/mL was 12.1 h.

Turning to BMN-111, the blood pressure effect result in data set [4] was “mild hypotension”. Moreover, in data set [5], the half-life is 0.333 h.

For the compound “Permanent Lys16 CNP-34 PEG 5 kDa Conjugate [Conjugate 17e]”, the “half life norm.” value in data set [6] stood at 54.23 h.

For the compound “Permanent Lys22 CNP-34 PEG 5 kDa Conjugate [Conjugate 18e]”, the “half life norm.” value in data set [6] is 38.87 h.

On to “Permanent Lys26 CNP-38 PEG4×10 kDa Conjugate [Conjugate 12g]”, for which the “half life norm. [h]” value in data set [6] is “Almost no proteolysis”.

As to “Permanent Lys26 CNP-38 PEG 5 kDa Conjugate [Conjugate 19e]”, the “EC50 compound/EC50 CNP-38 (residual NPR-B activity)” value in data set [7] is given as greater than 100. Also, in data set [8], the “IC50 of PEGylated CNP-38/IC50 CNP-38 (residual NPR-C affinity)” value was 1.1. Moreover, the “half life norm.” value in data set [6] is listed as 62.76 h.

As for “Permanent N-Terminal CNP-34 PEG 5 kDa Conjugate [Conjugate 14e]”, in data set [6], the “half life norm. [h]” value is on record as “Almost no proteolysis”.

In the case of “Permanent N-Terminal CNP-38 PEG 5 kDa Conjugate [Conjugate 15e]”, the “EC50 compound/EC50 CNP-38 (residual NPR-B activity)” value in data set [7] was greater than 5. For the same compound, the “IC50 of PEGylated CNP-38/IC50 CNP-38 (residual NPR-C affinity)” value in data set [8] worked out at 0.53. Moreover, in data set [6], the “half life norm. [h]” value is given as “Almost no proteolysis”.

As for “Reversible Lys26 CNP-38 PEG4×10 kDa Conjugate [Conjugate 11i]”, the “MAP during the remaining ten time points versus vehicle” value in data set [1] is “no difference in MAP”. Besides, the “change in MAP at the 5, 15 and 30 min post dose time points compared to predose” value in data set [1] is “physiological increase in MAP”. The “MAP (mean ± SD)” value in data set [1] (5 min post dose) is on record as 122.8 ± 5.9 mmHg; in data set [1] (15 min post dose), 121.5 ± 7.5 mmHg; in data set [1] (30 min post dose), 111.5 ± 13.7 mmHg; in data set [1] (predose), 106.4 ± 10.7 mmHg. In data set [1] (subcutaneous, dosage equivalent to CNP-38), the “effect on blood pressure (conclusion)” value was “did not decrease blood pressure”.
